Patent US20240180841A1, “ENTERIC TABLET CONTAINING DIMETHYL FUMARATE” (CURACLE CO., LTD., priority 2019, published 2024)
Structures can show the parent of a compound that is named as a salt.

Assay: Weight loss rate at 60° C. for 2 weeks (sublimation)
Format: physicochemical
Details: drying and sublimation
Description: Dimethyl fumarate has a property of being lost by sublimation depending on the storage temperature. Accordingly, in order to confirm the degree of weight loss according to the coating drying temperature, the degree of weight loss was repeatedly evaluated for 2 weeks at a temperature of 60° C. for dimethyl fumarate and a mixture thereof. At this time, the mixture of dimethyl fumarate was a mixture in which dimethyl fumarate and other pharmaceutically acceptable additives were mixed.

Weight loss in words: continued to lose weight
SMILES: COC(=O)/C=C/C(=O)OC [dimethyl fumarate, Dimethyl fumarate]
